Biological target: Complement C3 (Homo sapiens, UniProt P01024)
Test: Inhibition of complement C3

Sequence of Complement C3 (P01024 23-667 limits assumed): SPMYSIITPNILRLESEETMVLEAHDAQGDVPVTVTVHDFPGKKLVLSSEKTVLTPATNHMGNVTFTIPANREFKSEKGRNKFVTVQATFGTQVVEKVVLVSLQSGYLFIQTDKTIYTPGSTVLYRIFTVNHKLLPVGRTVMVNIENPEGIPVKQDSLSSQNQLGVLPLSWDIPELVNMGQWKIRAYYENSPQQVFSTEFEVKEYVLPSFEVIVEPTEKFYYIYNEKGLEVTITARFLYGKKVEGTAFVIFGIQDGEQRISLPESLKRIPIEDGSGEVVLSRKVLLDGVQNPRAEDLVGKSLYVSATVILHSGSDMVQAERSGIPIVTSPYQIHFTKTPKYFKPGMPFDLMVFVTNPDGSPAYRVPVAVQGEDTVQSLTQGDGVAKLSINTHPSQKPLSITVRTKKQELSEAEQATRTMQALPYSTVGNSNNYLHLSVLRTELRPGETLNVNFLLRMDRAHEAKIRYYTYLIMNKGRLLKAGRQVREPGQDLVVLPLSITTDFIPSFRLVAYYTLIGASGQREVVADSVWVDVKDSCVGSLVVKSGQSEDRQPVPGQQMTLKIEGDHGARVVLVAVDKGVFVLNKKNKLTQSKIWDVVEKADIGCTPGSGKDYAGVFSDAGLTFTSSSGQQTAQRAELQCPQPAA
Sequence of Complement C3 (P01024 672-1663 limits assumed): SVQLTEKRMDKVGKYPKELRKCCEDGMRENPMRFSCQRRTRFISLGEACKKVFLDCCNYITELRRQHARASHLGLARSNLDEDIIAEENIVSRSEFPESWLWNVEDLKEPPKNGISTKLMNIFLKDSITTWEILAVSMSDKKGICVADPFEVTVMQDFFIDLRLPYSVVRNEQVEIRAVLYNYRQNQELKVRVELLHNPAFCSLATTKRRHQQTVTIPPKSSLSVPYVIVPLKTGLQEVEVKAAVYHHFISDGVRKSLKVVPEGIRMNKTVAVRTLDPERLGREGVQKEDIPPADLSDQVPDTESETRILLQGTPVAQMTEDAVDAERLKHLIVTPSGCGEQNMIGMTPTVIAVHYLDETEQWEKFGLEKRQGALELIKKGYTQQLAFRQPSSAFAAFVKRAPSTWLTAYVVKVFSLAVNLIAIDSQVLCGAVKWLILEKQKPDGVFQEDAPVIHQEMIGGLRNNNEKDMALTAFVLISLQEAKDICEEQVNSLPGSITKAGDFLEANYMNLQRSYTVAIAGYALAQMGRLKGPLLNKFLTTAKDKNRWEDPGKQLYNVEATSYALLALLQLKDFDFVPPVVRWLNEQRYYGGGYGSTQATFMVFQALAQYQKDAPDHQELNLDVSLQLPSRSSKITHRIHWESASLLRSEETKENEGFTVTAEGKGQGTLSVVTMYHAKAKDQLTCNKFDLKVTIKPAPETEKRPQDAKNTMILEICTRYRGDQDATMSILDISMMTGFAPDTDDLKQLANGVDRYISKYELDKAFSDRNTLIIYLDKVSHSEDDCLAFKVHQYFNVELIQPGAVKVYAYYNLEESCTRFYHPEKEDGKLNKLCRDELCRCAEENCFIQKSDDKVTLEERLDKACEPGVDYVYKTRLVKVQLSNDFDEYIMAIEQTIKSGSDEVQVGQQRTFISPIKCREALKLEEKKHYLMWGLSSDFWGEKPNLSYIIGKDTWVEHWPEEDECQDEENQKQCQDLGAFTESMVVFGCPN

CC[C@H](C)[C@H](NC(C)=O)C(=O)N[C@H]1CSSC[C@@H](C(=O)N[C@H](C(N)=O)[C@@H](C)O)NC(=O)[C@H](CCCNC(=N)N)NC(=O)[C@H](Cc2c[nH]cn2)NC(=O)[C@H](C)NC(=O)CNC(=O)[C@H](Cc2c[nH]c3ccccc23)NC(=O)[C@H](CC(=O)O)NC(=O)[C@H](CCC(N)=O)NC(=O)[C@H](Cc2ccc3ccccc3c2)NC(=O)[C@H](C(C)C)NC1=O
IC50: 0.545 µM
